Where two headings read alike, the source gives them in different places. Residues, ends and D or L forms follow the SMILES beside them. No end group written: not given here.
How the values were obtained:
[1] = Simulated GI digestion (pepsin + pancreatin), read out as hydroxyl radical scavenging EC50; format: in vitro ADME; settings: two-stage digestion: pepsin 1.0 h + pancreatin 2.0 h; judged from hydroxyl radical EC50
Experimental: First, 1.0 mL of a 1.87 mM 1,10-phenanthroline solution and 2.0 mL of the sample were added to a screw-capped tube and mixed. Then, 1.0 mL of a FeSO4·7H2O solution (1.87 mM) was added to the mixture. The reaction was initiated by adding 1.0 mL of H2O2 (0.03%, v/v). After being incubated at 37 °C for 60 min in a water bath, the absorbance of the reaction mixture was measured at 536 nm against a reagent blank. The reaction mixture without any antioxidant was used as the negative control, and a mixture without H2O2 was used as the blank. The hydroxyl radical scavenging activity was calculated using the following formula: Hydroxyl radical scavenging activity (%) = [(As − An)/(Ab − An)] × 100% (3) where As, An, and Ab are the absorbance values determined at 536 nm of the sample, the negative control, and the blank after the reaction, respectively.
Stability of TGP3 and TGP4 were measured according to the previous method with minor modifications. A temperature-controlled water bath at 25, 37, 60, 80, or 100 °C for 0.5 h was used to measure thermostability of TGP3 and TGP4. Effects of pH treatments (pH 3, 5, 7, 9, or 11) of sample solutions incubated at 25 °C for 2.5 h were assessed to analyze the pH stability of TGP3 and TGP4. […] Hydroxyl radical scavenging activities (EC50 value) of the treated TGP3 and TGP4 were measured according to the previous methods.

[2] = cited from earlier work
[3] = cited from earlier work; for EC50 (half elimination ratio) on ABTS cation radical: APs from blue-spotted stingray
Description: Bioactive peptides (BPs), which in general range from 2 to 20 amino acids in size, are fragments of proteins and become active when released during enzymatic hydrolysis, gastrointestinal transit, and fermentation. […] Furthermore, EC50 values of TGP3 and TGP4 were lower than those of APs from protein hydrolysates of skip ...

[4] = cited from earlier work; for Change of activity during heat treatment: heat 25–100 °C; for Change of activity during pH treatment: pH 3–11
Description: Heat treatment is a common method of food processing and APs are helpful to lengthen the food shelf-life if they can keep their activity after heating. Peptides with large-scale pH stability can be incorporated into diverse liquid products and keep their bioactivity. Therefore, thermal and pH stability of peptides are important indexes for their application in functional products, and characterization of those properties can help to design their potential processing parameters. ATSHH from protein hydrolysate of sandfish (Arctoscopus japonicus) partially lost its DPPH radical scaven ...

[5] = cited from earlier work; remark: listed apart in the source
Description: EC50 values of TGP3 and TGP4 were lower than those of APs from protein ...

[6] = cited from earlier work; remark: listed apart in the source
Experimental: Defatted muscle of blood cockle was hydrolyzed under a two-enzyme system (Alcalase treatment for 1.5 h following Neutrase treatment for 1.5 h), and the degree of hydrolysis (DH) and yield of the resulted hydrolysate (referred to as TGH) were 19.32 ± 1.37% and 9.62 ± 0.86% (on the basis of defatted muscle), respectively. […] In addition, the EC50 values of TGP3 and TGP4 were lower than those o ...

[7] = APs from spotless smoothhound (Mustelus griseus) muscle
[8] = APs from miiuy croaker swim bladder
[9] = APs from croceine croaker scale

N[C@@H](Cc1c[nH]c2ccccc12)C(=O)N1CCC[C@H]1C(=O)N1CCC[C@H]1C(=O)N[C@@H](CC(=O)O)C(=O)O [TGP-4, Trp-Pro-Pro-Asp] (H-WPPD-OH)
Susceptibility to GI digestive enzymes [1]: partially susceptible to be degradated by GI digestive enzymes

AGPM [literature AP from skipjack tuna bone]
EC50 on superoxide anion radical ([2]; APs from skipjack tuna bone): 1680 µg/mL
EC50 on ABTS cation radical ([3]; APs from skipjack tuna bone): 1480 µg/mL

ATSHH [literature peptide from protein hydrolysate of sandfish (Arctoscopus japonicus)]
Retention of activity after pH treatment ([4]; basic (pH 10–12) and acidic (pH 2) conditions): moderate losses of activity
Retention of DPPH radical scavenging activity after heating ([4]; incubated at 50–90 °C): partially lost its DPPH radical scavenging activity

ELLI [literature AP from spotless smoothhound muscle]
EC50 on hydroxyl radical [5, 7]: 117.3 µg/mL

EWPAQ [literature AP from monkfish muscle]
EC50 on hydroxyl radical ([5]; APs from monkfish muscle): 269 µg/mL

FIGP [literature AP from bluefin leatherjacket skin]
EC50 on DPPH radical ([6]; AP from bluefin leatherjacket skin): 118 µg/mL

FIMGPY [literature AP from skate cartilage]
EC50 on ABTS cation radical ([3]; APs from skate cartilage): 1040 µg/mL

FLHRP [literature AP from monkfish muscle]
EC50 on hydroxyl radical ([5]; APs from monkfish muscle): 114 µg/mL
EC50 on superoxide anion radical ([2]; APs from monkfish muscle): 101 µg/mL

FLNEFLHV [literature AP from salmon]
EC50 on ABTS cation radical ([3]; AP from salmon): 1548 µg/mL

FMPLH [literature AP from miiuy croaker muscle]
EC50 on DPPH radical ([6]; APs from miiuy croaker muscle): 480 µg/mL
EC50 on hydroxyl radical ([5]; APs from miiuy croaker muscle): 800 µg/mL
EC50 on superoxide anion radical ([2]; APs from miiuy croaker muscle): 150 µg/mL

FPYLRH [literature AP from miiuy croaker swim bladder]
EC50 on hydroxyl radical [5, 8]: 680 µg/mL
EC50 on superoxide anion radical [2, 8]: 340 µg/mL

FSGLR [literature AP from miiuy croaker swim bladder]
EC50 on superoxide anion radical [2, 8]: 3350 µg/mL

FTGMD [literature AP from miiuy croaker swim bladder]
EC50 on superoxide anion radical [2, 8]: 3040 µg/mL

FWKVV [literature AP from miiuy croaker muscle]
EC50 on DPPH radical ([6]; APs from miiuy croaker muscle): 850 µg/mL
EC50 on hydroxyl radical ([5]; APs from miiuy croaker muscle): 970 µg/mL
EC50 on superoxide anion radical ([2]; APs from miiuy croaker muscle): 290 µg/mL

GADIVA [literature AP from skipjack tuna bone]
EC50 on DPPH radical ([6]; APs from skipjack tuna bone): 570 µg/mL
EC50 on hydroxyl radical ([5]; APs from skipjack tuna bone): 250 µg/mL

GAEGFIF [literature AP from skipjack tuna bone]
EC50 on DPPH radical ([6]; APs from skipjack tuna bone): 300 µg/mL
EC50 on hydroxyl radical ([5]; APs from skipjack tuna bone): 320 µg/mL

GFEPY [literature AP from miiuy croaker swim bladder]
EC50 on superoxide anion radical [2, 8]: 870 µg/mL

GFPSG [literature AP from croceine croaker scale]
EC50 on hydroxyl radical [5, 9]: 107 µg/mL
EC50 on superoxide anion radical [2, 9]: 151 µg/mL

GFRGTIGLVG [literature AP from croceine croaker scale]
EC50 on hydroxyl radical [5, 9]: 293 µg/mL

GFVG [literature AP from spotless smoothhound muscle]
EC50 on ABTS cation radical ([3]; APs from spotless smoothhound muscle, no reference given): 1305.5 µg/mL

GIEWA [literature AP from miiuy croaker swim bladder]
EC50 on DPPH radical ([6]; AP from miiuy croaker swim bladder): 780 µg/mL
EC50 on hydroxyl radical [5, 8]: 710 µg/mL
EC50 on superoxide anion radical [2, 8]: 300 µg/mL

GIISH [literature AP from spotless smoothhound muscle]
EC50 on hydroxyl radical [5, 7]: 76.9 µg/mL

GPAGPAG [literature AP from croceine croaker scale]
EC50 on hydroxyl radical [5, 9]: 240 µg/mL
EC50 on superoxide anion radical [2, 9]: 99 µg/mL

GPDGR [literature AP from skipjack tuna bone]
EC50 on superoxide anion radical ([2]; APs from skipjack tuna bone): 1440 µg/mL
EC50 on ABTS cation radical ([3]; APs from skipjack tuna bone): 1070 µg/mL

HFGBPFH [literature AP from grass carp skin]
EC50 on DPPH radical ([6]; AP from grass carp skin): 200 µg/mL

IVAGPQ [literature AP from skate cartilage]
EC50 on ABTS cation radical ([3]; APs from skate cartilage): 1290 µg/mL

KFPE [literature AP from spotless smoothhound muscle]
EC50 on hydroxyl radical [5, 7]: 151 µg/mL

LGLNGDDVN [literature AP from conger eel]
EC50 on hydroxyl radical ([5]; AP from conger eel): 687 µg/mL

LMGQW [literature AP from monkfish muscle]
EC50 on hydroxyl radical ([5]; APs from monkfish muscle): 40 µg/mL
EC50 on superoxide anion radical ([2]; APs from monkfish muscle): 42 µg/mL

MDLFTE [TGP-3, Met-Asp-Leu-Phe-Thr-Glu]
Susceptibility to GI digestive enzymes [1]: partially susceptible to be degradated by GI digestive enzymes

MYPGLA [literature peptide from blue-spotted stingray]
EC50 (half elimination ratio) on ABTS cation radical [3]: 12880 µg/mL
Change of activity during heat treatment [4]: no significant (p > 0.05) differences
Change of activity during pH treatment [4]: no significant (p > 0.05) differences

NADFGLNGLEGLA [literature AP from giant squid]
EC50 on hydroxyl radical ([5]; AP from giant squid): 612 µg/mL

NFWWP [literature AP from miiuy croaker muscle]
EC50 on superoxide anion radical ([2]; APs from miiuy croaker muscle): 840 µg/mL

NWDMEKIWD [literature AP from skate muscle]
EC50 on DPPH radical ([6]; AP from skate muscle): 289 µg/mL

PSYV [literature AP from weatherfish loach]
EC50 on hydroxyl radical ([5]; AP from weatherfish loach): 2640 µg/mL

PYSFK [literature AP from grass carp skin]
EC50 on hydroxyl radical ([5]; APs from grass carp skin): 2283 µg/mL

VGGRP [literature AP from grass carp skin]
EC50 on hydroxyl radical ([5]; APs from grass carp skin): 2055 µg/mL

WAFAPA [literature peptide from blue-spotted stingray]
EC50 (half elimination ratio) on ABTS cation radical [3]: 8330 µg/mL
Change of activity during heat treatment [4]: no significant (p > 0.05) differences
Change of activity during pH treatment [4]: no significant (p > 0.05) differences

YFLWP [literature AP from miiuy croaker muscle]
EC50 on superoxide anion radical ([2]; APs from miiuy croaker muscle): 3080 µg/mL

YPPAK [literature AP from blue mussel]
EC50 on DPPH radical ([6]; AP from blue mussel): 2620 µg/mL

Reference: article PMC6563033, “Purification and Characterization of Antioxidant Peptides Derived from Protein Hydrolysate of the Marine Bivalve Mollusk Tergillarca granosa” (Marine Drugs, 2019)
